Key:
[1] = Body weight in benign prostatic hyperplasia animal models; assay type: in vivo, Sprague-Dawley rats; conditions: BPH rats, oral once/day 14 days; extracts and saw palmetto 10-25 mg/kg, finasteride 10 mg/kg
Procedure: Sprague-Dawley rats aged 9 weeks (body weights of 350 g or less) were acclimated for one week or longer, and then used in tests. In order to induce benign prostatic hyperplasia, testicles were removed and then testosterone (dissolved in corn oil) was subcutaneously injected at a dose of 3 mg/kg once/three days for a total of 10 times. […] For the benign prostatic hyperplasia induction groups, testicles were removed and then […] (dissolved in corn oil) was subcutaneously injected at a dose of 3 mg/kg once/three days for a total of 10 times, by the same method as in Example 4.1. For the normal group, an equivalent amount of corn oil was subcutaneously injected. Salvia miltiorrhiza Bunge extracts T70 to T10 and saw palmetto fruit extract were dissolved in distilled water, and orally administered at a dose of 10-25 mg/kg once/day, for 14 days. For the finasteride administration group (Sigma, dissolved in 0.2% Tween 80), finasteride was orally administered at a dose of 10 mg/kg once/day for 14 days. For the negative control group, only distilled water was orally administered. The body weight was measured upon the end of the test, and on the next day after the ending of the last dosing and treatment, the SD-rats were sacrificed with carbon dioxide gas, and then the prostate tissue was extracted and the weight was measured. […]

androgen receptor (AR) = test: Western blot of AR expression in DHT-treated LNCaP cells; assay type: cell-based, human; conditions: 5 μM, same concentration as tanshinone2a, DHT-induced LNCaP cells
Procedure: (§1) Animal cells were cultured to investigate the effect of the Salvia miltiorrhiza Bunge extract of the present invention on benign prostatic hyperplasia or alopecia. Human prostate adenocarcinoma cell line LNCaP cells sensitive to androgens were used as animal cells, and purchased from the Korean Cell Line Bank (Seoul, Korea, KCLB #:21740). The cells were cultured in Roswell Park Memorial Institute (RPMI) medium supplemented with […] penicillin/streptomycin and 10% fetal bovine serum (FBS), and maintained in a CO2 incubator at 37° C.
(§2) Goat anti-rabbit immunoglobulin G (IgG, 7074) and anti-mouse IgG (7076) were purchased from Cell Signaling (Danvers, Mass.). […]
(§3) The LNCaP cells were seeded onto 6-well plates (1×10^6 cells/well) in 2 mL of RPMI medium supplemented with 10% FBS, 100 U/mL penicillin, and […] streptomycin. […] The lysed cells were centrifuged at 13,000 RPM for 20 minutes at 4° C., and the protein concentration was determined using BCA assay. […] The chemiluminescent intensities of protein signals were quantified using ImageJ 1.47 v software, and the results are shown in FIG. 2. The data obtained by SPSS version 11.5 for Windows (SPSS Inc., Chicago, Ill., USA) were expressed as the means±standard errors of the means (SEM). […]

[2] = tested on: androgen-related proteins; test: Overall effect on androgen-related proteins increased by DHT in LNCaP cells; assay type: cell-based, human; conditions: 5 μM, compared among tanshinone1, tanshinone2a, cryptotanshinone, 15,16-dihydrotanshinone
Procedure: as §1, §2, §3

[3] = tested on: steroid receptor coactivator-1 (SRC-1); test: Western blot of SRC-1 expression in DHT-treated LNCaP cells; assay type: cell-based, human; conditions: 5 μM, DHT-induced LNCaP cells
Procedure: as §1, §2, §3

[4] = tested on: prostate-specific antigen (PSA); test: Western blot of PSA expression in DHT-treated LNCaP cells; assay type: cell-based, human; conditions: 5 μM, same concentration as tanshinone2a, DHT-induced LNCaP cells
Procedure: as §1, §2, §3

[5] = tested on: 5α-reductase type 2 (5AR2); test: Western blot of 5AR2 expression in DHT-treated LNCaP cells; assay type: cell-based, human; conditions: 5 μM, DHT-induced LNCaP cells
Procedure: as §1, §2, §3

cells = conditions: as reported by SHAN GAO, et al. (2019); cited from earlier work

SMILES: CC(C)(C)NC(=O)[C@H]1CC[C@H]2[C@@H]3CC[C@H]4NC(=O)C=C[C@]4(C)[C@H]3CC[C@]12C [finasteride]
- body weight compared with control group (Con) [1]: no great difference

SMILES: Cc1cccc2c3c(ccc12)C1=C(C(=O)C3=O)[C@@H](C)CO1 [15,16-dihydrotanshinone, (1R)-1,6-dimethyl-1,2-dihydronaphtho[1,2-g][1]benzofuran-10,11-dione]
- inhibition of AR expression relative to tanshinone2a (androgen receptor (AR)): at least 5 times
- inhibitory effect on androgen-related proteins increased by DHT [2]: most inhibitory effect
- inhibition of SRC-1 expression [3]: more effectively than tanshinone2a
- inhibition of PSA expression relative to tanshinone2a [4]: at least 5 times
- inhibition of 5AR2 expression [5]: more effectively than tanshinone2a

SMILES: O=C(/C=C/c1ccc(O)c2c1[C@H](C(=O)O[C@H](Cc1ccc(O)c(O)c1)C(=O)O)[C@@H](c1ccc(O)c(O)c1)O2)O[C@H](Cc1ccc(O)c(O)c1)C(=O)O [salvianolic acid B]
- cytotoxicity (cells): has cytotoxicity at a predetermined concentration
